Patent US7407753B2, “Methods, kits and pharmaceutical compositions for diagnosing, delaying onset of, preventing and/or treating osteoporosis” (priority 2004, dated 2008)

How the values were obtained:
[1] = tested on: diaphyseal bone marrow derived stromal cells; assay: cell count of bone marrow derived stromal cells (preosteoblasts) challenged with ligand; type: cell-based, mouse; settings: cells grown for 10 days in osteogenic medium; 48 hours incubation with ligand; FIG. 1f
Experimental: (§1) Cell cultures and mRNA analysis—Osteoclastogenic cultures of monocytes derived from femora and tibiae of WT C57BL/6J mice were set as previously reported (Zou, W., et al., 2002. FASEB J. 16: 274-282). After separation and prior to RNA extraction or cell counts the cells were cultured for 5 days in medium containing M-CSF and RANKL (R&D Systems Inc. Minneapolis, Minn.). Primary bone marrow stromal cell cultures from femoral diaphyseal bone marrow and the MC3T3 E1 cells were cultured as reported previously (Frenkel, B., et al., 1997. Endocrinology 138: 2109-2116; Bab, I., et al., 1992. EMBO J. 11: 1867-1873). The cells were grown in osteogenic medium containing ascorbic acid, β-glycerophophate and dexamethasone (Frenkel, B., et al., 1997. Endocrinology 138: 2109-2116).
(§2) In the cell count experiments, ligands were dissolved in dimethylsulfoxide and further diluted to their final concentration using tissue culture medium. For osteoclast counts the cultures were fixed in ethanol and TRAP-stained. […] The cells were then serum starved for 2 hours followed by 48 hours incubation in (α-MEM supplemented with 4% BSA and ligand. Cells were separated using chondroitinase and trypsin (Krebsbach, P. H., et al., 1998. Transplantation 66, 1272-1278) and counted with a hemocytometer in triplicate wells per condition.

OVX mice = assay: ovariectomy (OVX)-induced femoral bone loss in sexually mature mice; type: in vivo, mouse; settings: C3H OVX mice, 10 mg/Kg/day subcutaneously for 4 weeks from time of operation; FIGS. 4a-g
Experimental: Ovariectomy (OVX) mice—C3H mice (Harlan, Israel) were subjected to an ovariectomy procedure. HU-308 was synthesized as described before [Hanus, L., et al. HU-308: a specific agonist for CB(2), a peripheral cannabinoid receptor. Proc. Natl. Acad. Sci. U.S.A. 96: 14228-142-33 (1999)] and was daily injected once subcutaneously as an ethanol/emulphor/saline (1:1:18) solution.
All reported animals received calcein flurochrome (Sigma), 15 mg/Kg intraperitoneally four days and one day prior to sacrifice. […]
Micro-computed tomography (μCT)—Whole femora were examined by μCT 40 (Scanco Medical, Bassersdorf, Switzerland). […] Trabecular bone parameters were measured in a metaphyseal segment, extending proximally from the proximal tip of the primary spongiosa to the proximal border of the distal femoral quartile. Cortical bone parameters were determined in a diaphyseal segment extending 1.12 mm distally from the midpoint between the femoral ends.
Histomorphometry and immunohistochemistry—After μCT image acquisition, the specimens were embedded undecalcified in Technovit 9100 (Heracus Kulzer, Wehrheim, Germany). […] Parameters were determined according to a standardized nomenclature [Parfitt, A. M., et al. Bone histomorphometry: standardization of nomenclature, symbols, and units. […]

[2] = tested on: tissue non-specific alkaline phosphatase (TNSALP); assay: TNSALP activity in the preosteoblastic stromal cell cultures; type: cell-based, mouse; settings: preosteoblastic stromal cell culture, early differentiation stage; data not shown
Experimental: as §1, §2

[3] = tested on: bone marrow derived osteoclastic cell system; assay: count of TRAP-positive multinucleated osteoclasts in primary osteoclastogenic monocyte culture; type: cell-based, mouse; settings: osteoclastogenic monocyte culture with M-CSF and RANKL; FIG. 1g
Experimental: as §1, §2

SMILES | number of diaphyseal bone marrow derived stromal cells [1] | ovariectomy (OVX)-induced femoral bone loss (OVX mice) | activity of the tissue non-specific alkaline phosphatase (TNSALP) [2] | number of TRAP positive multinucleated cells [3]
CCCCC/C=C\C/C=C\C/C=C\C/C=C\CCCCOC(CO)CO [Noladin ether, 2-arachidonyl glyceryl ether] | no significant effect |  |  | 
CCCCCCC(C)(C)c1cc(OC)c([C@@H]2C=C(CO)[C@@H]3C[C@H]2C3(C)C)c(OC)c1 [HU-308] | potent increase | attenuating | unaffected | marked dose dependent decrease
